In PubChem BioAssay AID489035 (Sanford-Burnham Center for Chemical Genomics, 2010) one finds IC50 data, which are given here for 85 molecules.

The source made the active and inactive calls. No rule for the calls is given here.

The assay relates to Jurkat NF-kB reporter, TCR-induced, luciferase luminescence. In words: T-cell NF-kB luciferase reporter inhibition – Jurkat cells, luminescence, dose response (AID 489035).

For the molecule `Cc1ccc2c(c1)COc1c3ccc(C(=O)O)cc3nn1-2`, the IC50 is > 80 µM (inactive).
Take `N#Cc1ccc(-c2cccs2)nc1SCc1cccnc1`: the IC50 is > 80 µM (inactive).
Consider `COc1ccc(/C=N\NC(=O)c2ccccc2F)cc1COc1ccc(F)cc1F`, for which the IC50 is > 80 µM (inactive).
The value for `COCCn1c(C)cc(C2=NNC(=Nc3ccccc3F)SC2)c1C` was 64.3 µM (inactive); that for `COc1ccc(C)c(Cn2c(-c3nonc3N)nc3ccccc32)c1` was > 80 µM (inactive).
For `CCCCc1ccc(NC(=O)c2ccc(N(C)S(C)(=O)=O)cc2)cc1`, the IC50 is under 0.16 µM.
As to `CCN(CC)S(=O)(=O)c1cc(NC(=O)CNc2cccc(S(=O)(=O)N3CCCC3)c2)ccc1C`, the IC50 is > 80 µM (inactive).
Take `Cn1c(SC2=CS(=O)(=O)c3ccccc32)nc2ccccc21`: the IC50 was 1.46 µM.
As for `COc1ccc(/C=N/NC(=O)COc2ccccc2-c2ccccc2)cc1`, the IC50 is 37.9 µM (inactive).
Turning to `O=C(NCc1ccc2c(c1)OCO2)c1cc([N+](=O)[O-])ccc1N1CCOCC1`, the IC50 was > 80 µM (inactive).
The value for `COc1cc(-c2c(-c3cc(OC)c(OC)c(OC)c3)noc2C)ccc1F` was 31.6 µM (inactive); that for `CCCCCCCCCn1c2c(c(=N)c3c1CCC3)CCC2` was 7.67 µM.
As to `Cc1c(C(=O)OCC(C)C)[nH]c2c1C(=O)CC(c1cccs1)C2` (stereo not given), the IC50 is > 80 µM (inactive).
Consider `CCCCN=C[C@]12CCC(O)CC1(O)CCC1[C@@H]2CC[C@]2(C)[C@H](C3C=CC(=O)O3)CCC12O` (stereo not given in full), for which the IC50 was > 80 µM (inactive).
The value for `Cc1ccc(S(=O)(=O)NCc2ccncc2)c(C)c1C` was > 80 µM (inactive); that for `Cc1ccccc1NS(=O)(=O)c1ccc(N2CCCC2=O)cc1` was 71.8 µM (inactive); that for `O=C(NCCc1ccccc1)c1ccc2c(c1)OCCO2` was 1.64 µM.
The value for `COC(=O)c1ccc(Oc2cc(C)nc(SC)n2)cc1` was > 80 µM (inactive); that for `O=C(c1ccccc1)c1cc([N+](=O)[O-])ccc1N1CCOCC1` was > 80 µM (inactive); that for `COc1ccc(C(=O)/C(C#N)=N/Nc2ccc([N+](=O)[O-])cc2)cc1` was 9.52 µM.
Consider `COc1cccc(N2CCN(C(=O)c3ccc(CS(=O)c4ccccc4Cl)o3)CC2)c1` (stereo not given), for which the IC50 was > 80 µM (inactive).
In the case of `COc1cc(/C=C/c2ccc3cccc(O)c3n2)cc(OC)c1OC`, the IC50 was 1.59 µM.
The value for `O=S1(=O)C=C(Sc2nc3ccccc3s2)c2ccccc21` was 0.26 µM; that for `COc1cccc(N2CCN(C(=O)c3cn(Cc4ccccc4)nc3-c3cccnc3)CC2)c1` was > 80 µM (inactive).
For the molecule `C=C1C(=O)C=C2CN(C(=O)c3ccccc3)[C@@](Cc3ccc(F)cc3)(C(=O)OC)[C@@H]12`, the IC50 is 0.89 µM.
The value for `O=C(c1ccc(CS(=O)c2ccccc2Cl)o1)N1CCN(c2ccccn2)CC1` (stereo not given) was 68.2 µM (inactive).
The value for `c1ccc(-c2cccc(-c3ccccn3)n2)nc1` was 1.61 µM.
The value for `CCOC(=O)c1[nH]c(C)c(C(=O)Nc2ccc(C)cc2C)c1C` was > 80 µM (inactive); that for `CCCCCCCOc1ccc(OC(=O)c2ccncc2)cc1` was > 80 µM (inactive).
Consider `CCCCC(=O)NC(c1ccc(Cl)cc1Cl)c1ccc2cccnc2c1O` (stereo not given), for which the IC50 was 9.87 µM.
The value for `Cc1cc(O)c2c(c1O)C(=O)[C@]13C(=C2O)C(=O)[C@@H]2[C@@H](O)[C@H]1[C@@H]1[C@H](O)[C@H]3C(=O)C3=C(O)c4c(O)cc(C)c(O)c4C(=O)[C@]312` was under 0.16 µM; that for `Cc1nc(Nc2nc3c(c(=O)[nH]2)CCC3)nc2ccccc12` was 3.66 µM.
The value for `C=C1C(=O)O[C@H]2C[C@@H](C)[C@@H]3C=CC(=O)[C@@]3(C)C[C@H]12` was 1.26 µM.
The value for `Cc1cc(-c2ccc(C)c(S(=O)(=O)N3CCN(c4ccc([N+](=O)[O-])cc4)CC3)c2)on1` was > 80 µM (inactive); that for `C[C@@H]1O[C@@H](O[C@H]2C[C@@H](O)[C@]3(CO)[C@H]4[C@H](O)C[C@]5(C)[C@@H](C6COC(=O)C6)CC[C@]5(O)[C@@H]4CC[C@]3(O)C2)[C@H](O)[C@H](O)[C@H]1O` (stereo not given in full) was > 80 µM (inactive).
`CCOc1ccc(S(=O)(=O)NCc2ccccn2)cc1NC(=O)c1ccccc1F`: the IC50 was > 80 µM (inactive).
For the molecule `N/C(=N\OCc1ccc([N+](=O)[O-])cc1)c1ccccn1`, the IC50 was 0.67 µM.
Consider `O=C(Nc1ccc(S(=O)(=O)Nc2ccc(F)cc2)cc1)c1ccc(CN2CCOCC2)cc1`, for which the IC50 was 40.8 µM (inactive).
The value for `O=C(COc1ccc(C(=O)c2ccccc2)cc1)NCc1ccc(F)cc1` was 29.2 µM (inactive); that for `COc1ccc(NC(=O)Cn2nnc(-c3ccccc3NS(=O)(=O)c3ccc(OC)cc3)n2)cc1` was > 80 µM (inactive).
The value for `COc1ccc(/C=c2/sc3n(c2=O)C(c2ccccc2OC)C2=C(N=3)c3ccccc3CC2)cc1O` (stereo not given) was 22.6 µM (inactive); that for `Cc1cc(C)c(S(=O)(=O)Nc2ccc3c4c(cccc24)CC3)c(C)c1` was 61 µM (inactive).
The value for `Cc1ccc(N2C(=O)c3cccc4c(N)ccc(c34)C2=O)c2cccnc12` was under 0.16 µM.
Turning to `Cc1ccc(C(=O)Nc2cccc(C(=O)O)c2)cc1`, the IC50 was 3.03 µM.
The value for `O=[N+]([O-])c1ccc(Sc2ccc(Cl)c(Cl)c2)nc1` was 2.99 µM; that for `COc1ccccc1CNS(=O)(=O)c1ccc(-c2cc(C)no2)cc1` was > 80 µM (inactive); that for `COc1ccc2c(C)nc(Nc3nc(-c4ccccc4)cc(=O)[nH]3)nc2c1` was > 80 µM (inactive).
The value for `O=C1/C(=C/c2ccc(N3CCOCC3)o2)SC(=Nc2ccccc2)N1CCc1c[nH]c2ccccc12` was 18.3 µM.
The value for `Nc1nc(Cl)cc(N2CCC(c3cc(-c4ccc(Cl)cc4)n[nH]3)CC2)n1` was 1.87 µM; that for `CCOc1cc(C(=O)N/N=C/C(Br)=C/c2ccccc2)cc(OCC)c1OCC` was > 80 µM (inactive).
On to `COc1ccc2c(c1)/C(=C/c1cnc[nH]1)C(=O)N2`, for which the IC50 was 6.51 µM.
The value for `Nc1ncn([C@@H]2O[C@H](CO)[C@@H](O)[C@H]2O)c(=O)n1` was 10.8 µM; that for `CC(C)Nc1ccc(C(CC(N)=O)NC(=O)c2ccc(Br)cc2)cc1[N+](=O)[O-]` (stereo not given) was 4.05 µM.
`COc1ccc(C(=O)Nc2ccc3[nH]c(-c4cccc(OC)c4)cc(=O)c3c2)cc1`: the IC50 was under 0.16 µM.
The value for `C=CC[C@@H](CC/C=C/C=C/CC/C=C\[C@@H]1CSC([C@@H]2C[C@@H]2C)=N1)OC` was 50.8 µM (inactive); that for `COc1cc(C(=O)Nc2ccc3c(c2)ncn3C)cc(OC)c1OC` was > 80 µM (inactive); that for `CCn1nc(C)c(CNC(=O)c2ccc(OC3CCN(Cc4ccccn4)CC3)cc2)c1C` was > 80 µM (inactive).
The value for `COc1ccc(CC(=O)Nc2cccc(-c3nnc(-c4cccc(C)c4)o3)c2)cc1OC` was 47.6 µM (inactive); that for `CC1Cc2cc(-c3csc(NC(=O)Cc4cccs4)n3)ccc2N1S(C)(=O)=O` (stereo not given) was 5.4 µM; that for `CCC(=O)N1c2ccc(S(=O)(=O)N3CCN(c4ccc([N+](=O)[O-])cc4)CC3)cc2CC1C` (stereo not given) was > 80 µM (inactive).
The value for `COc1ccccc1NC(=O)Cn1nnc(C(=O)NCc2cccs2)c1N` was > 80 µM (inactive).
Take `Cc1ccc(C[n+]2c(-c3ccc(C)cc3)cc(-c3ccc(C)cc3)cc2-c2ccc(C)cc2)cc1`: the IC50 is 2.35 µM.
The value for `COc1ccc(Br)cc1/C(C)=N/NC1=NCCN1` was > 80 µM (inactive); that for `C=C(C)C(=O)O[C@H]1C/C(C)=C\C(=O)/C=C(\C)[C@H](O)[C@@H]2OC(=O)C(=C)[C@@H]21` was 2.06 µM.
Regarding `Cc1oc2c(c1C(=O)NCc1cccnc1)C(=O)c1ccccc1C2=O`, the IC50 is 1.1 µM.
Turning to `CCCOc1ccc(/C=N/Nc2cc(N3CCOCC3)ncn2)c(O)c1`, the 50% inhibitory concentration (IC50) is 10 µM.
The value for `CCOC(=O)C(C)Oc1cccc2c(=O)n(CC(=O)NCc3ccccc3)ccc12` (stereo not given) was > 80 µM (inactive); that for `Cc1cc(-c2ccc(S(=O)(=O)N(C)c3ccc(C)c(C)c3)s2)on1` was > 80 µM (inactive).
Take `CC(=O)c1sc2c(c1OC(=O)c1ccc(Cl)cc1Cl)c(=O)n(-c1ccccc1)c(=S)n2-c1ccccc1`: the IC50 was 1.35 µM.
The value for `Cc1cccc(N=Nc2ccc(O)c3ncccc23)c1` was 6.14 µM; that for `Cc1c(C(=O)N/N=C/c2ccc(Cl)cc2)[nH]c2ccc(Cl)cc12` was > 80 µM (inactive).
The value for `O=c1oc2ccccc2cc1-c1cn(-c2ccccc2)c(=S)[nH]1` was 13 µM; that for `CNC[C@@H](CC1CCCCC1)NC[C@H](CC(C)C)NCCc1cccc(C(F)(F)F)c1` was 5 µM.
The value for `CCc1ccc2nc(SCC(=O)Nc3ccccc3N3CCOCC3)c(C#N)cc2c1` was 32.4 µM (inactive); that for `Cc1cc(-c2ccc(C(C)C)c(S(=O)(=O)N3CCN(c4ccccc4)CC3)c2)on1` was > 80 µM (inactive).
As to `Cc1ccc(-n2ncc3c(N4CCN(c5ccccc5)CC4)ncnc32)c(C)c1`, the IC50 was 4.9 µM.
The value for `O=C(CNC(=O)c1ccco1)N=Nc1c(O)n(CCc2ccccc2)c2ccccc12` was > 80 µM (inactive); that for `Cc1ccc(Nc2cc(C)nn2-c2nc(C)cc(=O)[nH]2)cc1` was 0.92 µM.
For `Nc1nc2n[nH]nc2c(=O)[nH]1`, the IC50 was > 80 µM (inactive).
The value for `C=C(C)COc1ccc(-c2[nH]ncc2-c2ccc(OC)c(OC)c2)c(O)c1` was 13.6 µM; that for `CCN(CC)c1ccc(-c2nn3c(-c4n[nH]c5c4CCC5)nnc3s2)cc1` was 47.1 µM (inactive).
The value for `O=C1c2cccc3cc([N+](=O)[O-])cc(c23)C(=O)N1CCN1CCCC1` was > 80 µM (inactive); that for `COc1ccc(NS(=O)(=O)c2cc(-c3cnc(C4CC4)o3)ccc2C)cc1` was 27 µM (inactive); that for `C=C1C(O)[C@@H]2O[C@]3(CC[C@H](/C=C/C(C)[C@@H]4CC(C)=CC5(O[C@H](C[C@@](C)(O)CO)CCC5O)O4)O3)CC[C@H]2O[C@@H]1C(O)CC(C)[C@H]1OC2(CCCCO2)CCC1C` (stereo not given in full) was 0.29 µM.
The value for `Cc1cc(C)c(CN2CCN(C(=O)Cn3cnc4c(OCc5ccccc5)ncnc43)CC2)c(C)c1` was > 80 µM (inactive).

For orientation: IC50 means the concentration at which inhibition is half-maximal.
